From ChEMBL document CHEMBL1158341, “A macrolactone from benzo[a]phenazine with potent activity against Mycobacterium tuberculosis” (2009)
≈ marks a conversion by molar mass, not a printed value. Calls of active or inactive are those of the source. No cut-off for these calls is given here.

Experiments:
[1] = system: Mycobacterium tuberculosis; test: Antimycobacterial activity against Mycobacterium tuberculosis H37Rv ATCC 27294 at 100 ug/mL after 24 hrs by microplate alamar blue assay; type: functional
[2] = system: Mycobacterium tuberculosis; test: Antimycobacterial activity against Mycobacterium tuberculosis H37Rv ATCC 27294 after 24 hrs by microplate alamar blue assay; type: functional

CC1(C)CCC(=O)c2nc3ccccc3nc2-c2ccccc2C(=O)O1 showed an inhibition at 100 µg/mL [1] of 90% and an MIC [2] of 0.62 mg/L (≈ 1.79 µM).

Work on CO[C@H]1/C=C/O[C@@]2(C)Oc3c(C)c(O)c4c(O)c(c(/C=N/N5CCN(C)CC5)c(O)c4c3C2=O)NC(=O)/C(C)=C\C=C\[C@H](C)[C@H](O)[C@@H](C)[C@@H](O)[C@@H](C)[C@H](OC(C)=O)[C@@H]1C [RIFAMPIN] yielded an MIC [2] of 1 mg/L (≈ 1.22 µM).

CC1(C)CC(=O)c2nc3ccccc3nc2-c2ccccc2C(=O)O1 gave an inhibition at 100 µg/mL [1] of 90% and an MIC [2] of 100 mg/L (≈ 301 µM).

CC1(C)CCC(=O)c2nccnc2-c2ccccc2C(=O)O1 showed an inhibition at 100 µg/mL [1] of 90% and an MIC [2] of 50 mg/L (≈ 169 µM).

CC1(C)OC(=O)c2ccccc2-c2c(nc3ccccc3[n+]2[O-])C(=O)CC1Br (stereo unspecified) showed an inhibition at 100 µg/mL [1] of 90% and an MIC [2] of 25 mg/L (≈ 56.7 µM).

In the case of CC(C)(O)CCCC1(O)C(=O)c2ccccc2-c2nc3ccccc3nc21 (stereo unspecified), the inhibition at 100 µg/mL [1] is reported as 90% and the MIC [2] is reported as “inactive”.
